Starred links: 1 amine or outer side, 2 acyl side, 3 side chain; linkers in the order of their positions; H or OH if unused. Positions of bridges follow the written chain, without caps; N, C: chain ends. Non-standard residues stand in square brackets, D forms with d. Residues, ends and D or L forms follow the SMILES beside them. No end group written: not given here. *: point of attachment. C18 diacid = O=C(O)CCCCCCCCCCCCCCCCC(=O)*; γGlu = O=C(O)[C@H](CCC(=O)[*:2])N[*:1]; AEEA = NCCOCCOCC(=O)O
Target: T1, human natriuretic peptide receptor 2 (hNPR2) (Homo sapiens, UniProt P20594)
T1 construct: expressed in transfected cells; host or cells: HEK293 (ATCC CRL-1573), clone 35, co-transfected with pGloSensor-42F
T1 sequence (P20594 23-1047): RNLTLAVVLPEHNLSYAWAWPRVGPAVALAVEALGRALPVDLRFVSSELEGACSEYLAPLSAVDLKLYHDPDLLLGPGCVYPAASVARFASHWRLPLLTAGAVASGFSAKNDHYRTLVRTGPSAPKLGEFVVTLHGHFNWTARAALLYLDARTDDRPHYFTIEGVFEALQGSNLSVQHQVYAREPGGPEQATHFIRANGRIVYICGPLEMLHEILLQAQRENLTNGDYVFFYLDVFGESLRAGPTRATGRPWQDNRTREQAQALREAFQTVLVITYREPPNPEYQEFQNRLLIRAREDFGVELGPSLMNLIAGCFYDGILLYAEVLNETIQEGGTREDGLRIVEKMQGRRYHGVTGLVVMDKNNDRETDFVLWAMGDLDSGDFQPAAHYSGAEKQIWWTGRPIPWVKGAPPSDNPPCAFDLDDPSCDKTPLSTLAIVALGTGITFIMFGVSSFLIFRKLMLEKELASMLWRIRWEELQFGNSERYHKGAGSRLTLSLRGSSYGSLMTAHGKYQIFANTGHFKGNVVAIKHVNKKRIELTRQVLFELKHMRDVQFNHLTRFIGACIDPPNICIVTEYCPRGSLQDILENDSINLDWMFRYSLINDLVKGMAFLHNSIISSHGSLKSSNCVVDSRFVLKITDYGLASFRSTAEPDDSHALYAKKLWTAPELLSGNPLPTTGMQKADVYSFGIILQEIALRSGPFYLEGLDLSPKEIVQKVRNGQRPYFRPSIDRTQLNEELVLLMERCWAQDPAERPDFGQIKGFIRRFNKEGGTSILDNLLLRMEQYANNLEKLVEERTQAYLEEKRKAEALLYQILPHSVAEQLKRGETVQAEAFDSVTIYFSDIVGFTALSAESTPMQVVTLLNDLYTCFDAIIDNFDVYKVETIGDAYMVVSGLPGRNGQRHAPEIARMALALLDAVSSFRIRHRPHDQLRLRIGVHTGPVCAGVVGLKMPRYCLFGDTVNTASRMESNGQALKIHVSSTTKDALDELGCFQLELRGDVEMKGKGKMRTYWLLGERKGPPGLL
Assay: In vitro hNPR2 activity assay (cGMP GloSensor reporter, HEK293)
Assay type: cell-based
Settings: for hNPR2 0% HSA. [EC50% rel CNP]: potency relative to CNP22 (0065); for EC50: 0% HSA, HEK293-hNPR2/GloSensor cells
How it was run: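 Potency is the EC50 from a four-parameter logistic fit, also expressed relative to the in-plate CNP22 control (×100), with at least two replicates. Compounds (ten concentrations, […], HSA-free diluent with 1% OVA, 0.01% Tween20) were incubated 30 min at 37 °C on HEK293 cells co-expressing hNPR2 and a GloSensor cGMP luciferase. Luminescence detected with Bright-Glo.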

Row | Compound | hNPR2 0% HSA. [EC50% rel CNP] [%] | EC50 [nM]
1 | CC[C@H](C)[C@@H]1NC(=O)[C@H](CCCNC(=N)N)NC(=O)[C@H](CC(=O)O)NC(=O)[C@H](CC(C)C)NC(=O)[C@@H]2CCCN2C(=O)[C@H](CC(C)C)NC(=O)CNC(=O)[C@H](Cc2ccccc2)NC(=O)[C@@H](NC(=O)CNC(=O)[C@H](CCC(N)=O)NC(=O)[C@H](CO)NC(=O)[C@H](CC(C)C)NC(=O)CNC(=O)[C@H](CCCCN)NC(=O)[C@H](CCCCN)NC(=O)[C@H](CCC(N)=O)NC(=O)[C@H](C)NC(=O)CNC(=O)[C@H](CCCCN)NC(=O)[C@H](Cc2ccc(O)cc2)NC(=O)COCCOCCNC(=O)COCCOCCNC(=O)COCCOCCNC(=O)COCCOCCNC(=O)[C@H](CCC(=O)O)NC(=O)[C@H](CCC(=O)O)NC(=O)[C@H](CCC(=O)O)NC(=O)CCCCCCCCCCCCCCCCC(=O)O)CSSC[C@@H](C(=O)O)NC(=O)CNC(=O)[C@H](CC(C)C)NC(=O)CNC(=O)[C@H](CO)NC(=O)[C@H](CC(C)C)NC(=O)[C@H](CO)NC(=O)CNC1=O [compound 1481] ({C18 diacid}-EEE[AEEA][AEEA][AEEA][AEEA]YKGAQKKGLSQGCFGLPLDRIGSLSGLGC-OH; disulfide 20-36) | 35.1 | 
2 | CC[C@H](C)[C@@H]1NC(=O)[C@H](CCCNC(=N)N)NC(=O)[C@H](CCC(=O)O)NC(=O)[C@H](CC(C)C)NC(=O)[C@@H]2CCCN2C(=O)[C@H](CC(C)C)NC(=O)CNC(=O)[C@H](Cc2ccccc2)NC(=O)[C@@H](NC(=O)CNC(=O)[C@H](CCC(N)=O)NC(=O)[C@H](CO)NC(=O)[C@H](CO)NC(=O)CNC(=O)[C@H](CCCCN)NC(=O)[C@H](CCCCN)NC(=O)[C@H](CCC(N)=O)NC(=O)[C@H](C)NC(=O)CNC(=O)[C@@H]2CCCN2C(=O)[C@H](C)NC(=O)[C@H](CCC(N)=O)NC(=O)CNC(=O)COCCOCCNC(=O)COCCOCCNC(=O)CC[C@H](NC(=O)CCCCCCCCCCCCCCCCC(=O)O)C(=O)O)CSSC[C@@H](C(=O)O)NC(=O)CNC(=O)[C@H](CC(C)C)NC(=O)CNC(=O)[C@H](CO)NC(=O)[C@H](CC(C)C)NC(=O)[C@H](CO)NC(=O)CNC1=O [compound 1486] ({C18 diacid-γGlu-AEEA-AEEA}-GQAPGAQKKGSSQGCFGLPLERIGSLSGLGC-OH; disulfide 15-31; C-terminus assumed) | 6.0 | 0.14
3 | CC[C@H](C)[C@@H]1NC(=O)[C@H](CCCNC(=N)N)NC(=O)[C@H](CC(=O)O)NC(=O)[C@H](CC(C)C)NC(=O)[C@@H]2CCCN2C(=O)[C@H](CC(C)C)NC(=O)CNC(=O)[C@H](Cc2ccccc2)NC(=O)[C@@H](NC(=O)CNC(=O)[C@H](CCC(N)=O)NC(=O)[C@H](CO)NC(=O)[C@H](CC(C)C)NC(=O)CNC(=O)[C@H](CCCCN)NC(=O)[C@H](CCCCN)NC(=O)[C@H](CCC(N)=O)NC(=O)[C@H](C)NC(=O)CNC(=O)[C@@H]2CCCN2C(=O)[C@H](C)NC(=O)[C@H](CCC(N)=O)NC(=O)CNC(=O)[C@@H]2CCCN2C(=O)[C@H](C)NC(=O)[C@H](CCC(N)=O)NC(=O)CNC(=O)[C@@H]2CCCN2C(=O)[C@H](C)NC(=O)[C@H](CCC(N)=O)NC(=O)CNC(=O)COCCOCCNC(=O)COCCOCCNC(=O)CC[C@H](NC(=O)CCCCCCCCCCCCCCCCC(=O)O)C(=O)O)CSSC[C@@H](C(=O)O)NC(=O)CNC(=O)[C@H](CC(C)C)NC(=O)CNC(=O)[C@H](CO)NC(=O)[C@H](CC(C)C)NC(=O)[C@H](CO)NC(=O)CNC1=O [compound 1487] ({C18 diacid-γGlu-AEEA-AEEA}-GQAPGQAPGQAPGAQKKGLSQGCFGLPLDRIGSLSGLGC-OH; disulfide 23-39) | 22.0 | 
4 | CC[C@H](C)[C@@H]1NC(=O)[C@H](CCCNC(=N)N)NC(=O)[C@H](CC(=O)O)NC(=O)[C@H](CC(C)C)NC(=O)[C@@H]2CCCN2C(=O)[C@H](CC(C)C)NC(=O)CNC(=O)[C@H](Cc2ccccc2)NC(=O)[C@@H](NC(=O)CNC(=O)[C@H](CCC(N)=O)NC(=O)[C@H](CO)NC(=O)[C@H](CC(C)C)NC(=O)CNC(=O)[C@H](CCCCN)NC(=O)[C@H](CCCCN)NC(=O)[C@H](CCC(N)=O)NC(=O)[C@H](C)NC(=O)CNC(=O)[C@@H]2CCCN2C(=O)[C@H](C)NC(=O)[C@H](CCC(N)=O)NC(=O)CNC(=O)[C@@H]2CCCN2C(=O)[C@H](C)NC(=O)[C@H](CCC(N)=O)NC(=O)CNC(=O)[C@@H]2CCCN2C(=O)[C@H](C)NC(=O)[C@H](CCC(N)=O)NC(=O)CNC(=O)CC[C@H](NC(=O)CCCCCCCCCCCCCCCCC(=O)O)C(=O)O)CSSC[C@@H](C(=O)O)NC(=O)CNC(=O)[C@H](CC(C)C)NC(=O)CNC(=O)[C@H](CO)NC(=O)[C@H](CC(C)C)NC(=O)[C@H](CO)NC(=O)CNC1=O [compound 1488] ({C18 diacid-γGlu}-GQAPGQAPGQAPGAQKKGLSQGCFGLPLDRIGSLSGLGC-OH; disulfide 23-39) | 29.3 | 
5 | CC[C@H](C)[C@@H]1NC(=O)[C@H](CCCNC(=N)N)NC(=O)[C@H](CCC(=O)O)NC(=O)[C@H](CC(C)C)NC(=O)[C@@H]2CCCN2C(=O)[C@H](CC(C)C)NC(=O)CNC(=O)[C@H](Cc2ccccc2)NC(=O)[C@@H](NC(=O)CNC(=O)[C@H](CCC(N)=O)NC(=O)[C@H](CO)NC(=O)[C@H](CC(C)C)NC(=O)CNC(=O)[C@H](CCCCN)NC(=O)[C@H](CCCCN)NC(=O)[C@H](CCC(N)=O)NC(=O)[C@H](C)NC(=O)CNC(=O)[C@H](CCCCN)NC(=O)[C@H](Cc2ccc(O)cc2)NC(=O)COCCOCCNC(=O)COCCOCCNC(=O)COCCOCCNC(=O)COCCOCCNC(=O)CC[C@H](NC(=O)CC[C@H](NC(=O)CCCCCCCCCCCCCCCCC(=O)O)C(=O)O)C(=O)O)CSSC[C@@H](C(=O)O)NC(=O)CNC(=O)[C@H](CC(C)C)NC(=O)CNC(=O)[C@H](CO)NC(=O)[C@H](CC(C)C)NC(=O)[C@H](CO)NC(=O)CNC1=O [compound 1493] ({C18 diacid-γGlu-γGlu-AEEA-AEEA-AEEA-AEEA}-YKGAQKKGLSQGCFGLPLERIGSLSGLGC-OH; disulfide 13-29; C-terminus assumed) | 11.5 | 0.8
6 | CC[C@H](C)[C@@H]1NC(=O)[C@H](CCCNC(=N)N)NC(=O)[C@H](CC(=O)O)NC(=O)[C@H](CC(C)C)NC(=O)[C@H](CCCCN)NC(=O)[C@H](CC(C)C)NC(=O)CNC(=O)[C@H](Cc2ccccc2)NC(=O)[C@@H](NC(=O)CNC(=O)[C@H](CCCCN)NC(=O)[C@H](CO)NC(=O)[C@H](CC(C)C)NC(=O)CNC(=O)[C@H](CCCCN)NC(=O)[C@H](CCCCN)NC(=O)[C@H](CC(N)=O)NC(=O)[C@H](C)NC(=O)CNC(=O)[C@H](CCCCN)NC(=O)[C@H](Cc2ccc(O)cc2)NC(=O)[C@H](CCCCN)NC(=O)[C@H](CCCNC(=N)N)NC(=O)[C@H](C)NC(=O)[C@H](CC(N)=O)NC(=O)[C@@H]2CCCN2C(=O)[C@H](Cc2c[nH]cn2)NC(=O)[C@H](CCC(=O)O)NC(=O)[C@@H](N)CCC(N)=O)CSSC[C@@H](C(=O)O)NC(=O)CNC(=O)[C@H](CC(C)C)NC(=O)CNC(=O)[C@H](CO)NC(=O)[C@H](CCSC)NC(=O)[C@H](CO)NC(=O)CNC1=O [compound 1510] | 139.2 | 0.05
7 | {C18 diacid-γGlu-AEEA-AEEA}-GQAPGQAPGQAPGQAPGQAPGLSKGCFGLKLDRIGSMSGLGC-OH (disulfide 26-42) [compound 0230] | 0.4 | 
8 | {C18 diacid}-EEEEE[AEEA][AEEA][AEEA][AEEA]ARKYKGAQKKGLSQGCFGLPLDRIGSLSGLGC (disulfide 25-41) [compound 1475] | 46.5 | 
9 | {C18 diacid}-EGEGEGEGE[AEEA][AEEA]ARKYKGAQKKGLSQGCFGLPLDRIGSLSGLGC-OH (disulfide 27-43) [compound 1476] | 48.4 | 

Source: patent US20240209028A1, “CNP COMPOUNDS” (priority 2022, published 2024)
